Reference: the SangsterLogP compilation

Assay: method code SF-HPLC, from DOI: 10.1016/0378-5173(85)90030-4

Row | SMILES | logP
1 | CC(C)(C)C(=O)OCn1cc2c(=O)n(COC(=O)C(C)(C)C)cnc2n1 | 2.34
2 | CC(C)(C)C(=O)OCn1cnc2c(cnn2COC(=O)C(C)(C)C)c1=O | 2.5
3 | CCCC(=O)OCn1cnc2c(cnn2COC(=O)CCC)c1=O | 1.82
4 | CCN(CC)C(=O)CCC(=O)OCn1ncc2c(=O)[nH]cnc21 | -0.22
5 | CCCC(=O)OCn1cc2c(=O)[nH]cnc2n1 | 0.33
6 | O=C(OCn1ncc2c(=O)[nH]cnc21)c1cccnc1 | 0.27

The remaining lines, values ahead:

Row | logP | SMILES
7 | 0.79 | CC(C)(C)C(=O)OCn1cc2c(=O)[nH]cnc2n1
8 | 1.07 | CC(C)(C)C(=O)OCn1ncc2c(=O)[nH]cnc21
9 | 0.21 | CCOC(=O)OCn1ncc2c(=O)[nH]cnc21
10 | 0.6 | CCCC(=O)OCn1ncc2c(=O)[nH]cnc21
11 | 1.5 | O=C(OCn1ncc2c(=O)[nH]cnc21)c1ccccc1
12 | -0.35 | CC(=O)OCn1ncc2c(=O)[nH]cnc21
